Patent US10894784B2, “Heteroarylbenzimidazole compounds” (BAYER PHARMA AKTIENGESELLSCHAFT, priority 2015, dated 2021)

What follows are compounds tested against TBK1 (Homo sapiens (Human), UniProt Q9UHD2) (assay: TBK1 low ATP kinase assay (in vitro assay 1)). Conditions: TBK1 low ATP kinase assay IC50, in vitro assay 1.
Chain of TBK1 (Q9UHD2 whole entry): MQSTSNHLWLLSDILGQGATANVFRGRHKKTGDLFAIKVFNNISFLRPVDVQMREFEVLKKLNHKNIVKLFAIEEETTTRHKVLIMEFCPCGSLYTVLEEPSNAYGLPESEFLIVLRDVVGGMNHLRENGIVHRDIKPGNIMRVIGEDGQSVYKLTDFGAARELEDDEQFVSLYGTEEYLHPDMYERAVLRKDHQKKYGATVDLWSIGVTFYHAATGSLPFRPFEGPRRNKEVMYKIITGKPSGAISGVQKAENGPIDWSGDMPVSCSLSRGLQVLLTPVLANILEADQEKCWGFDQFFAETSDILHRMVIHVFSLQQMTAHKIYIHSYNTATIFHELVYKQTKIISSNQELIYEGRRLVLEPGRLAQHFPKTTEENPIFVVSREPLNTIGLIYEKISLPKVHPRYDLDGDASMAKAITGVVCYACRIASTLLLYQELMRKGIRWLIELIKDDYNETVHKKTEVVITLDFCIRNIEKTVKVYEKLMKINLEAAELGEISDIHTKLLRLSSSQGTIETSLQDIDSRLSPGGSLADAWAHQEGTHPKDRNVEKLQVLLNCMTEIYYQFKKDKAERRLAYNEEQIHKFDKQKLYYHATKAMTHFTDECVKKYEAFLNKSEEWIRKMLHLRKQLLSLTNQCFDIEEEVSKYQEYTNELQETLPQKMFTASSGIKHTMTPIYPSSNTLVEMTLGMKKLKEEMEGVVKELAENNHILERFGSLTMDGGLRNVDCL
Type: biochemical
`Cc1noc(-c2ccc3nc(Nc4cc(C(C)N5CCN(C(=O)CC(F)(F)F)CC5)ccn4)[nH]c3c2)n1` (racemic) [Example 16.05.02, (rac)-3,3,3-trifluoro-1-{4-[1-(2-{[6-(3-methyl-1,2,4-oxadiazol-5-yl)-1H-benzimidazol-2-yl]amino}pyridin-4-yl)ethyl]piperazin-1-yl}propan-1-one] showed an IC50 of 33 nM.

Same assay, conditions: in vitro assay 1, read-out: TBK1 low ATP kinase assay IC50
Compound `N#Cc1cnccc1-c1ccc2nc(Nc3cc(CN4CCN(C(=O)CC(F)(F)F)CC4)ccn3)[nH]c2c1` [Example 133.02, 4-{2-[(4-{[4-(3,3,3-trifluoropropanoyl)piperazin-1-yl]methyl}pyridin-2-yl)amino]-1H-benzimidazol-6-yl}pyridine-3-carbonitrile] has an IC50 of 140 nM. With `COc1cc(-c2ccc3nc(Nc4cc(C(C)N5CCN(C(=O)CC(F)(F)F)CC5)ccn4)[nH]c3c2)ncn1` (single isomer, unassigned) [Example 34.03.01.A, 3,3,3-trifluoro-1-{4-[(1R or 1S)-1-(2-{[6-(6-methoxypyrimidin-4-yl)-1H-benzimidazol-2-yl]amino}pyridin-4-yl)ethyl]piperazin-1-yl}propan-1-one] the IC50 was 12.1 nM. With `CC(c1ccnc(Nc2nc3ccc(-c4cc(OCC5CC5)ncn4)cc3[nH]2)c1)N1CCN(C(=O)OC(C)(C)C)CC1` (single isomer, unassigned) [Example 85.02, tert-Butyl 4-{(1R or 1S)-1-[2-({6-[6-(cyclopropylmethoxy)pyrimidin-4-yl]-1H-benzimidazol-2-yl}amino)pyridin-4-yl]ethyl}piperazine-1-carboxylate] the IC50 was 14 nM. In the case of `COCCCS(=O)(=O)N1CCN(Cc2ccnc(Nc3nc4ccc(-c5ncncc5OC)cc4[nH]3)c2)CC1` [Example 35.01.10, N-[4-({4-[(3-methoxypropyl)sulfonyl]piperazin-1-yl}methyl)pyridin-2-yl]-6-(5-methoxypyrimidin-4-yl)-1H-benzimidazol-2-amine], the IC50 is reported as 35 nM. `Cc1ncc(-c2ccc3nc(Nc4cc(CN5CCN(C(=O)CC(F)(F)F)CC5)ccn4)[nH]c3c2)cn1` [Example 45.03.01, 3,3,3-trifluoro-1-{4-[(2-{[6-(2-methylpyrimidin-5-yl)-1H-benzimidazol-2-yl]amino}pyridin-4-yl)methyl]piperazin-1-yl}propan-1-one] was tested, and the IC50 was 3790 nM. `Cc1cc(-c2ccc3nc(Nc4cc(CN5CCN(C(=O)CC(F)(F)F)CC5)ccn4)[nH]c3c2)nc(C)n1` [Example 31.01, 1-{4-[(2-{[6-(2,6-dimethylpyrimidin-4-yl)-1H-benzimidazol-2-yl]amino}pyridin-4-yl)methyl]piperazin-1-yl}-3,3,3-trifluoropropan-1-one] gave an IC50 of 86.8 nM. `CCNc1cc(-c2ccc3nc(Nc4cc(CN5CCN(C(=O)OC(C)(C)C)CC5)ccn4)[nH]c3c2)ncn1` [Example 149.01, tert-butyl 4-{[2-({6-[6-(ethylamino)pyrimidin-4-yl]-1H-benzimidazol-2-yl}amino)pyridin-4-yl]methyl}piperazine-1-carboxylate] gave an IC50 of 4.7 nM. In the case of `Cc1noc(-c2ccc3nc(Nc4cc(CN5CCN(c6ccc(C#N)cc6)CC5)ccn4)[nH]c3c2)n1` [Example 101.18, 4-{4-[(2-{[6-(3-methyl-1,2,4-oxadiazol-5-yl)-1H-benzimidazol-2-yl]amino}pyridin-4-yl)methyl]piperazin-1-yl}benzonitrile], the IC50 is reported as 1500 nM. Work on `Cc1cccc(N2CCN(Cc3ccnc(Nc4nc5ccc(-c6nc(C)no6)cc5[nH]4)c3)CC2)c1` [Example 101.03, 6-(3-methyl-1,2,4-oxadiazol-5-yl)-N-(4-{[4-(3-methylphenyl)piperazin-1-yl]methyl}pyridin-2-yl)-1H-benzimidazol-2-amine] yielded an IC50 of 690 nM. In the case of `Cc1noc(-c2ccc3nc(Nc4cc(C(C)N5CCN(C(=O)C6(C(F)(F)F)CC6)CC5)ccn4)[nH]c3c2)n1` (single isomer, unassigned) [Example 16.06.04, {4-[(1R or 1S)-1-(2-{[6-(3-methyl-1,2,4-oxadiazol-5-yl)-1H-benzimidazol-2-yl]amino}pyridin-4-yl)ethyl]piperazin-1-yl}[1-(trifluoromethyl)cyclopropyl]methanone], the IC50 is reported as 21.7 nM. `O=C(C1CC1)N1CCN(Cc2ccnc(Nc3nc4ccc(-c5cc(NC6CCC6)ncn5)cc4[nH]3)c2)CC1` [Example 152.03, (4-{[2-({6-[6-(cyclobutylamino)pyrimidin-4-yl]-1H-benzimidazol-2-yl}amino)pyridin-4-yl]methyl}piperazin-1-yl)(cyclopropyl)methanone] showed an IC50 of 0.96 nM. `CC(c1ccnc(Nc2nc3ccc(-c4ccnn4C)cc3[nH]2)c1)N1CCN(C(=O)OC(C)(C)C)CC1` (single isomer, unassigned) [Example 123.01, tert-butyl 4-[(1R or 1S)-1-(2-{[6-(1-methyl-1H-pyrazol-5-yl)-1H-benzimidazol-2-yl]amino}pyridin-4-yl)ethyl]piperazine-1-carboxylate] gave an IC50 of 36 nM. For `O=C(CC(F)(F)F)N1CCN(Cc2ccnc(Nc3nc4ccc(-c5ccnc(F)c5)cc4[nH]3)c2)CC1` [Example 137.02, 3,3,3-trifluoro-1-{4-[(2-{[6-(2-fluoropyridin-4-yl)-1H-benzimidazol-2-yl]amino}pyridin-4-yl)methyl]piperazin-1-yl}propan-1-one], the IC50 was 5.8 nM. For `Cc1nccc(-c2ccc3nc(Nc4cc(CN5CCN(C(=O)C6CCC6)CC5)ccn4)[nH]c3c2)n1` [Example 24.01.02, cyclobutyl{4-[(2-{[6-(2-methylpyrimidin-4-yl)-1H-benzimidazol-2-yl]amino}pyridin-4-yl)methyl]piperazin-1-yl}methanone], the IC50 was 39.9 nM. `Cc1noc(-c2ccc3nc(Nc4cc(CN5CCN(C(=O)OC(C)(C)C)C[C@H]5C)ccn4)[nH]c3c2)n1` [Example 16.03.01, tert-butyl (3R)-3-methyl-4-[(2-{[6-(3-methyl-1,2,4-oxadiazol-5-yl)-1H-benzimidazol-2-yl]amino}pyridin-4-yl)methyl]piperazine-1-carboxylate] gave an IC50 of 125 nM. With `CN(C)c1cc(-c2ccc3nc(Nc4cc(CN5CCN(C(=O)OC(C)(C)C)CC5)ccn4)[nH]c3c2)ccn1` [Example 135.01, tert-butyl 4-{[2-({6-[2-(dimethylamino)pyridin-4-yl]-1H-benzimidazol-2-yl}amino)pyridin-4-yl]methyl}piperazine-1-carboxylate] the IC50 was 71 nM. For `Cc1noc(-c2ccc3nc(Nc4cc(CN5C[C@@H](C)N(C(=O)C6CCC6)C[C@@H]5C)ccn4)[nH]c3c2)n1` [Example 16.02.05, cyclobutyl{(2R,5S)-2,5-dimethyl-4-[(2-{[6-(3-methyl-1,2,4-oxadiazol-5-yl)-1H-benzimidazol-2-yl]amino}pyridin-4-yl)methyl]piperazin-1-yl}methanone], the IC50 was 405 nM. In the case of `CC(c1ccnc(Nc2nc3ccc(-c4cnn(CC5CC5(F)F)c4)cc3[nH]2)c1)N1CCN(C(=O)OC(C)(C)C)CC1` (single isomer, unassigned) [Example 55.01.01, tert-butyl 4-[(1R or 1S)-1-(2-{[6-(1-{[(1R or 1S)-2,2-difluorocyclopropyl]methyl}-1H-pyrazol-4-yl)-1H-benzimidazol-2-yl]amino}pyridin-4-yl)ethyl]piperazine-1-carboxylate], the IC50 is reported as 5.5 nM. `CC(C)Cc1nc(-c2ccc3nc(Nc4cc(CN5CCN(C(=O)OC(C)(C)C)CC5)ccn4)[nH]c3c2)n(C)n1` [Example 42.01, tert-butyl 4-{[2-({6-[1-methyl-3-(2-methylpropyl)-1H-1,2,4-triazol-5-yl]-1H-benzimidazol-2-yl}amino)pyridin-4-yl]methyl}piperazine-1-carboxylate] gave an IC50 of 577 nM. With `CCc1cc(-c2ccc3nc(Nc4cc(CN5CCN(C(=O)CC(F)(F)F)CC5)ccn4)[nH]c3c2)ncn1` [Example 91.02, 1-{4-[(2-{[6-(6-ethylpyrimidin-4-yl)-1H-benzimidazol-2-yl]amino}pyridin-4-yl)methyl]piperazin-1-yl}-3,3,3-trifluoropropan-1-one] the IC50 was 12 nM. `Cn1ccc(-c2ccc3nc(Nc4cc(CN5CCN(C(=O)C6CCC6)CC5)ccn4)[nH]c3c2)n1` [Example 40.04, cyclobutyl{4-[(2-{[6-(1-methyl-1H-pyrazol-3-yl)-1H-benzimidazol-2-yl]amino}pyridin-4-yl)methyl]piperazin-1-yl}methanone] showed an IC50 of 1390 nM. With `COc1cncnc1-c1ccc2nc(Nc3cc(CN4CCN(C(=O)N5CCCC5)CC4)ccn3)[nH]c2c1` [Example 35.01.05, {4-[(2-{[6-(5-methoxypyrimidin-4-yl)-1H-benzimidazol-2-yl]amino}pyridin-4-yl)methyl]piperazin-1-yl}(pyrrolidin-1-yl)methanone] the IC50 was 48 nM. `CCOc1ncnc(-c2ccc3nc(Nc4cc(CN5CCN(C(=O)OC(C)(C)C)CC5)ccn4)[nH]c3c2)c1OC` [Example 167.01, tert-butyl 4-[(2-{[6-(6-ethoxy-5-methoxypyrimidin-4-yl)-1H-benzimidazol-2-yl]amino}pyridin-4-yl)methyl]piperazine-1-carboxylate] showed an IC50 of 222 nM. `O=C(C1CC1)N1CCN(Cc2ccnc(Nc3nc4ccc(-c5ncnc(NCC6CC6)c5F)cc4[nH]3)c2)CC1` [Example 195.03, cyclopropyl[4-({2-[(6-{6-[(cyclopropylmethyl)amino]-5-fluoropyrimidin-4-yl}-1H-benzimidazol-2-yl)amino]pyridin-4-yl}methyl)piperazin-1-yl]methanone] was tested, and the IC50 was 34.1 nM. `Cc1nc(-c2ccc3nc(Nc4cc(CN5CCN(C(=O)CC(F)(F)F)CC5)ccn4)[nH]c3c2)cc(N(C)C)n1` [Example 190.02, 1-(4-{[2-({6-[6-(dimethylamino)-2-methylpyrimidin-4-yl]-1H-benzimidazol-2-yl}amino)pyridin-4-yl]methyl}piperazin-1-yl)-3,3,3-trifluoropropan-1-one] was tested, and the IC50 was 868 nM. For `CC(c1ccnc(Nc2nc3ccc(-c4cc(N5CC(C(F)(F)F)C5)ncn4)cc3[nH]2)c1)N1CCN(C(=O)[C@@H]2CC2(F)F)CC1` (single isomer, unassigned) [Example 164.05, ((1RS)-2,2-difluorocyclopropyl){4-[(1R or 1S)-1-[2-[(6-{6-[3-(trifluoromethyl)azetidin-1-yl]pyrimidin-4-yl}-1H-benzimidazol-2-yl)amino]pyridin-4-yl}ethyl]piperazin-1-yl}methanone], the IC50 was 0.566 nM.
